In ChEMBL document CHEMBL4371080, “Multiple weak intercalation as a strategy for the inhibition of polymerases” (Bioorg Med Chem Lett, 2019):
Where a SMILES comes first, the peptide text is derived from it. Bridges are numbered along the chain shown (N, C = ends). [ ]: non-standard residue; d: D form. The star is where a group is joined. ξ: configuration not given here. Quinoxaline2carbonyl = O=C(c1cnc2ccccc2n1)*; ξDap = NCC(N)C(=O)O

Experiments:
[1] = biological target: Human immunodeficiency virus type 1 reverse transcriptase (Human immunodeficiency virus 1) (UniProt Q72547); test: Inhibition of HIV1 reverse transcriptase assessed as reduction in [3H]dTTP incorporation by measuring proportional residual activity ratio at 20 uM using poly(rA)/oligo(dT) as template/primer after 30 mins by scintillation counting method relative to control
[2] = biological target: Human immunodeficiency virus type 1 reverse transcriptase (Human immunodeficiency virus 1) (UniProt Q72547); test: Inhibition of HIV1 reverse transcriptase assessed as reduction in [3H]dTTP incorporation by measuring proportional residual activity ratio at 300 uM using poly(rA)/oligo(dT) as template/primer after 30 mins by scintillation counting method

Ratio [1] | Ratio [2] | SMILES
 | 0.35 | NC(=O)C[C@@H](NC(=O)[C@@H](N)Cc1c[nH]c2ccccc12)C(=O)N[C@H](Cc1c[nH]c2ccccc12)C(N)=O
 | 0.6 | NC(=O)C[C@@H](NC(=O)[C@@H](N)Cc1c[nH]c2ccccc12)C(=O)N[C@@H](Cc1c[nH]c2ccccc12)C(N)=O
 | 0.47 | NC(=O)C[C@@H](NC(=O)[C@H](N)Cc1c[nH]c2ccccc12)C(=O)N[C@H](Cc1c[nH]c2ccccc12)C(N)=O
 | 0.62 | NC(=O)C[C@H](NC(=O)[C@@H](N)Cc1c[nH]c2ccccc12)C(=O)N[C@@H](Cc1c[nH]c2ccccc12)C(N)=O
 | 0.69 | NC(=O)C[C@H](NC(=O)[C@H](N)Cc1c[nH]c2ccccc12)C(=O)N[C@H](Cc1c[nH]c2ccccc12)C(N)=O
 | 0.69 | NC(=O)C[C@H](NC(=O)[C@H](N)Cc1c[nH]c2ccccc12)C(=O)N[C@@H](Cc1c[nH]c2ccccc12)C(N)=O
 | 0.34 | NC(=O)C[C@@H](NC(=O)[C@H](N)Cc1c[nH]c2ccccc12)C(=O)N[C@@H](Cc1c[nH]c2ccccc12)C(N)=O
 | 0.44 | NC(=O)C[C@H](NC(=O)[C@@H](N)Cc1c[nH]c2ccccc12)C(=O)N[C@H](Cc1c[nH]c2ccccc12)C(N)=O
 | 0.7 | NC(=O)[C@@H](Cc1c[nH]c2ccccc12)NC(=O)[C@H](N)Cc1c[nH]c2ccccc12

Further lines, the compound ahead of its results:

SMILES | Ratio [1] | Ratio [2]
NCC1NC(=O)C[C@@H](C(N)=O)NC(=O)CNC(=O)CNC(=O)CNC(=O)C(CNC(=O)c2cnc3ccccc3n2)NC(=O)C(CNC(=O)c2cnc3ccccc3n2)NC1=O (stereo partly drawn) ([ξDap][ξDap](Quinoxaline2carbonyl)[ξDap](Quinoxaline2carbonyl)GGGD-NH2; lactam N-7) | 0.3 | 
NCC1NC(=O)C[C@@H](C(N)=O)NC(=O)CNC(=O)C(CNC(=O)c2cnc3ccccc3n2)NC(=O)CNC(=O)C(CNC(=O)c2cnc3ccccc3n2)NC(=O)CNC1=O (stereo partly drawn) ([ξDap]G[ξDap](Quinoxaline2carbonyl)G[ξDap](Quinoxaline2carbonyl)GD-NH2; lactam N-7) | 0.09 | 
NC(=O)[C@H](Cc1c[nH]c2ccccc12)NC(=O)CNC(=O)[C@@H](N)Cc1c[nH]c2ccccc12 |  | 0.4
NC(=O)[C@@H](Cc1c[nH]c2ccccc12)NC(=O)[C@@H](N)Cc1c[nH]c2ccccc12 |  | 0.45
NCC1NC(=O)C[C@@H](C(N)=O)NC(=O)CNC(=O)C(CNC(=O)c2cnc3ccccc3n2)NC(=O)C(CNC(=O)c2cnc3ccccc3n2)NC(=O)CNC(=O)CNC1=O (stereo partly drawn) ([ξDap]GG[ξDap](Quinoxaline2carbonyl)[ξDap](Quinoxaline2carbonyl)GD-NH2; lactam N-7) | 0.57 | 
NCC1NC(=O)C[C@@H](C(N)=O)NC(=O)C(CNC(=O)c2cnc3ccccc3n2)NC(=O)C(CNC(=O)c2cnc3ccccc3n2)NC(=O)CNC(=O)CNC(=O)CNC1=O (stereo partly drawn) ([ξDap]GGG[ξDap](Quinoxaline2carbonyl)[ξDap](Quinoxaline2carbonyl)D-NH2; lactam N-7) | 0.71 | 
NC(=O)[C@@H](Cc1c[nH]c2ccccc12)NC(=O)CCNC(=O)[C@@H](N)Cc1c[nH]c2ccccc12 |  | 0.46
NC(=O)[C@H](Cc1c[nH]c2ccccc12)NC(=O)[C@@H](N)Cc1c[nH]c2ccccc12 |  | 0.65
NC(=O)[C@H](Cc1c[nH]c2ccccc12)NC(=O)CCCNC(=O)[C@H](N)Cc1c[nH]c2ccccc12 |  | 0.43
NC(=O)[C@@H](Cc1c[nH]c2ccccc12)NC(=O)CNC(=O)[C@H](N)Cc1c[nH]c2ccccc12 |  | 0.76
NC(=O)[C@H](Cc1c[nH]c2ccccc12)NC(=O)[C@H](N)Cc1c[nH]c2ccccc12 |  | 0.61
NC(=O)[C@@H](Cc1c[nH]c2ccccc12)NC(=O)CNC(=O)[C@@H](N)Cc1c[nH]c2ccccc12 |  | 0.74
NC(=O)[C@H](Cc1c[nH]c2ccccc12)NC(=O)CNC(=O)[C@H](N)Cc1c[nH]c2ccccc12 |  | 0.63
NC(=O)[C@@H](Cc1c[nH]c2ccccc12)NC(=O)CCCNC(=O)[C@H](N)Cc1c[nH]c2ccccc12 |  | 0.36
